Assay results taken from patent publication US20110245095A1, “FAST ASSIGNMENT OF ADEQUATE CHEMOTHERAPY WITH LATINUM BASED DRUGS FOR CANCER PATIENTS BASED ON THE IDENTIFICATION OF CONSTITUTIONAL BRCAL MUTATIONS” (priority 2008, published 2011).

Assays:
Assay type in all cases: in vivo, human
[1] = system: cancer of colon, lung, pancreas, gallbladder, BRCA1 mutation carriers; test: Cisplatin chemotherapy of BRCA1 mutation carriers with cancer at sites other than breast and ovaries, total (Example 3); details: 5 patients
Excerpt: (§1) The database of the oncology department at the Pomeranian Academy of Medicine, Szczecin (Poland), was retrospectively screened for patients affected by cancer types different than the breast or ovary (histologically or cytologically proven) since those cancer types had already been analyzed in Examples 1 and 2. Those patients had to be carriers of at least one constitutional mutation of the gene BRCA1, among the dominating founder mutations in Poland (CMG, 4153delA and 5382insC). The presence of a mutation was determined by the same techniques described in Example 1.
(§2) The group that qualified matching all criteria consisted of five patients affected by cancer of the colon (1 subject), the pancreas (1 subject), the gallbladder (1 subject) and the lung (2 subjects). In 60% of the cases (both lung cancer patients and the colon cancer patient) a complete remission was reported after the application of the chemotherapy. […] In none of the cases, there was a lack of response towards cisplatin.

[2] = system: cancer of the gallbladder, BRCA1 mutation carriers; test: Cisplatin chemotherapy of BRCA1 mutation carriers with gallbladder cancer (Example 3, retrospective); details: 1 patient
Excerpt: as §1, §2

[3] = system: disseminated breast and ovarian cancer, BRCA1 mutation carriers; test: Cisplatin chemotherapy, disseminated breast and ovarian cancer analysed together (Example 2)
Excerpt: The patients selected for this study were retrospectively screened from the database of the oncology department at the Pomeranian Academy of Medicine, Szczecin (Poland). […] All cases were documented for the presence of a BRCA1 constitutional mutation among the dominating founder mutations in Poland (C610, 4153delA and 5382insC) determined by the same techniques described in Example 1. The tumor size had to be measurable per RECIST: X-Ray or physical examination ≧20 mm, and/or spiral CT scan≧10 mm, and/or conventional CT scan≧20 mm. Only individuals were chosen with a life expectancy a priori of at least 3 months, to exclude a technical blur due to extreme disease progression in terminal cancer cases. The maximal ECOG performance status admitted was less than or equal to 2. The definition of minimum adequacy of organ function required prior to study entry were as follows: Absolute neutrophil count (ANC)>1,500/mcl, Platelets>100,000/mcl, Haemoglobin >8 g/dl, Total Bilirubin <1.5×ULN, AST (SGOT)/ALT (SGPT)<2.5×ULN and Creatinine within the normal institutional limits. All patients signed their willingness and ability to comply with scheduled visits, treatment plans, laboratory tests, and other study procedures. A total of 15 patients matched the selection criteria with ages at diagnosis ranging from 32 to 70 years and mean age at diagnosis of 48 years.
Ovarian cancer patients were selected following the same selection criteria. Four individuals matched the criteria with ages at diagnosis ranging from 42 to 45 years and mean age at diagnosis of 43.5 years.
The response assessment was based on a complete tumor measurement form (the form is carried forward continuously from cycle to cycle). Possible responses were complete response, partial response, stable disease and progressive disease, according to international oncology standards.

[4] = system: disseminated ovarian cancer, BRCA1 mutation carriers; test: Cisplatin chemotherapy of BRCA1 mutation carriers with disseminated ovarian cancer (Example 2, retrospective); details: 4 patients
Excerpt: The patients selected for this study were retrospectively screened from the database of the oncology department at the Pomeranian Academy of Medicine, Szczecin (Poland). […] All cases were documented for the presence of a BRCA1 constitutional mutation among the dominating founder mutations in Poland (C610, 4153delA and 5382insC) determined by the same techniques described in Example 1. The tumor size had to be measurable per RECIST: X-Ray or physical examination ≧20 mm, and/or spiral CT scan≧10 mm, and/or conventional CT scan≧20 mm. Only individuals were chosen with a life expectancy a priori of at least 3 months, to exclude a technical blur due to extreme disease progression in terminal cancer cases. The maximal ECOG performance status admitted was less than or equal to 2. […]

[5] = system: cancer of the colon, BRCA1 mutation carriers; test: Cisplatin chemotherapy of BRCA1 mutation carriers with colon cancer (Example 3, retrospective); details: 1 patient
Excerpt: as §1, §2

[6] = system: cancer of the pancreas, BRCA1 mutation carriers; test: Cisplatin chemotherapy of BRCA1 mutation carriers with pancreatic cancer (Example 3, retrospective); details: 1 patient
Excerpt: as §1, §2

[7] = system: cancer of the lung, BRCA1 mutation carriers; test: Cisplatin chemotherapy of BRCA1 mutation carriers with lung cancer (Example 3, retrospective); details: 2 patients
Excerpt: as §1, §2

[8] = system: invasive breast cancer, pathogenic BRCA1 mutation carriers; test: Neoadjuvant cisplatin therapy in breast cancer patients carrying a constitutional BRCA1 mutation (Example 1)
Method: Eight patients were treated in Szczecin (Poland) and two were treated in Bielsko-Biala (Poland). In these centers, genetic testing is offered to all women with incident breast cancer.
For the purpose of this study, genetic testing was expedited; in most cases the test result was available within five days of diagnosis. Written informed consent was obtained from each patient. The protocol was approved by the Research Ethics Review Board of the Pomeranian Medical Academy.
Patients with a previous diagnosis of breast cancer, or other cancer, were excluded (three patients). Patients who received prior chemotherapy were excluded (three patients). Patients with metastatic disease (stage 1V) at presentation were excluded (one patient). One patient presented with primary breast cancer after a previous prophylactic bilateral mastectomy and was excluded.
Patients were evaluated for renal function, liver function, and hematology prior to therapy.
Prior to platinum chemotherapy, the clinical and histological features of the breast cancers were assessed. Tumor size was evaluated by clinical examination and by ultrasound, in some cases supplemented by mammogram. Histology was evaluated in nine cases by core biopsy and in one case by fine needle aspiration. For the nine cases who underwent core biopsy, grade, ER, PR, and ERBB2 status were evaluated by immuno-histochemistry. […] Grade was evaluated in the core biopsy specimen using the Bloom-Richardson classification system,
Each cycle was 21 days. Granulocyte colony-stimulating factor (G-CSF) was not given to any patient. Dexamethasone (8 mg) was administered once daily for three days after chemotherapy, Ondansetron (Zophran™; GlaxoWellcome) was used for anti-nausea prophylaxis. Toxicity (nausea, vomiting, neutropenia) was assessed using the National Cancer Institute Common Toxicity Criteria after each cycle.
Surgery was followed by post-operative chemotherapy (four cycles of Adriamycin and Cyclophosphamide). Two patients received radiotherapy.
Clinical response was considered complete if there was no evidence of the primary breast tumor according to the World Health Organization (WHO) criteria (total disappearance of the tumor in breast and lymph nodes). Clinical response was considered ‘partial’ if there was a reduction of ≧50% in the product of the two largest perpendicular diameters of the tumor. […] The primary endpoint of this study was pathologic complete response. Pathologic response was considered complete if there was no evidence of invasive breast tumor and the lymph nodes were negative. Pathology specimens were reviewed by two pathologists. If there was evidence of breast carcinoma in situ, but no evidence of invasive disease, this was still considered to be a pathologic complete response.

[9] = N = 10, after mastectomy and lymph node dissection
[10] = neoadjuvant cisplatin 75 mg/m^2 every three weeks, N = 10

Compound: N.N.[Cl][Pt][Cl] [cisplatin, cis-diamminedichloridoplatinum(II)]
- Response: CR, % of patients [1]: 60%
- Response: CR, number of patients [1]: 3
- Response: PR, % of patients [1]: 20%
- Response: PR, number of patients [1]: 1
- Response: SD, % of patients [1]: 20%
- Response: SD, number of patients [1]: 1
- patients with at least a partial remission [1]: 80%
- No response, number of patients [2]: 0
- Response: PR, number of patients [2]: 1
- No response, % of patients ([3]; 19 patients): 21%
- No response, number of patients ([3]; 19 patients): 4
- Response: CR, % of patients ([3]; 19 patients): 53%
- Response: CR, number of patients ([3]; 19 patients): 10
- Response: PR, % of patients ([3]; 19 patients): 16%
- Response: PR, number of patients ([3]; 19 patients): 3
- Response: SD, % of patients ([3]; 19 patients): 10%
- Response: SD, number of patients ([3]; 19 patients): 2
- patients responsive to the therapy ([3]; 19 patients, CR + PR + SD): 79%
- adverse effects: anemia, cases ([3]; Example 2 patients): 1 case
- adverse effects: nausea, cases ([3]; Example 2 patients): 2 cases
- adverse effects: neutropenia, cases ([3]; Example 2 patients): 6 cases
- No response, number of patients [4]: 0
- Response: PR (partial response), number of patients [4]: 0
- No response, number of patients [5]: 0
- Response: CR, number of patients [5]: 1
- No response, number of patients [6]: 0
- Response: SD, number of patients [6]: 1
- No response, number of patients [7]: 0
- Response: CR, number of patients [7]: 2
- Clinical Response: No Change, % ([8]; N = 10): 0%
- Clinical Response: No Change, No. ([8]; N = 10): 0
- Clinical Response: Partial Response, % ([8]; N = 10): 10%
- Clinical Response: Partial Response, No. ([8]; N = 10): 1
- Clinical Response: Progressive Disease, % ([8]; N = 10): 0%
- Clinical Response: Progressive Disease, No. ([8]; N = 10): 0
- Number of Lymph Nodes Positive: 0, % ([8]; N = 10): 90%
- Number of Lymph Nodes Positive: 0, No. ([8]; N = 10): 9
- Number of Lymph Nodes Positive: 1-3, % ([8]; N = 10): 10%
- Number of Lymph Nodes Positive: 1-3, No. ([8]; N = 10): 1
- Number of Lymph Nodes Positive: 4-9, % ([8]; N = 10): 0%
- Number of Lymph Nodes Positive: 4-9, No. ([8]; N = 10): 0
- Number of Lymph Nodes Positive: >9, % ([8]; N = 10): 0%
- Number of Lymph Nodes Positive: >9, No. ([8]; N = 10): 0
- Pathologic Response: No Response, % ([8]; N = 10): 0%
- Pathologic Response: No Response, No. ([8]; N = 10): 0
- Pathologic Response: Partial Reseponse, % ([8]; N = 10): 10%
- Pathologic Response: Partial Reseponse, No. ([8]; N = 10): 1
- Residual Disease in Breast: 1-3 cm, % ([8]; N = 10): 0%
- Residual Disease in Breast: 1-3 cm, No. ([8]; N = 10): 0
- Residual Disease in Breast: 4-9 cm, % ([8]; N = 10): 0%
- Residual Disease in Breast: 4-9 cm, No. ([8]; N = 10): 0
- Residual Disease in Breast: <1 cm, % ([8]; N = 10): 0%
- Residual Disease in Breast: <1 cm, No. ([8]; N = 10): 0
- Residual Disease in Breast: >9 cm, % ([8]; N = 10): 0%
- Residual Disease in Breast: >9 cm, No. ([8]; N = 10): 0
- Residual Disease in Breast: none, % ([8]; N = 10): 100%
- Residual Disease in Breast: none, No. ([8]; N = 10): 10
- grade 3 or 4 anemia ([8]; N = 10): No grade 3 or 4 anemia was observed
- patients with febrile neutropenia ([8]; N = 10): No patient
- Pathologic Response: Complete Pathologic Response, % [8, 9]: 90%
- Pathologic Response: Complete Pathologic Response, No. [8, 9]: 9
- patients who stopped due to side effects (nausea and vomiting) ([8]; N = 10, stopped after two cycles): One patient
- complete pathologic response, patients who completed treatment ([8]; four cycles of cisplatin, seven patients): all seven
- Clinical Response: Complete Response, % [8, 10]: 90%
- Clinical Response: Complete Response, No. [8, 10]: 9
- pathologic complete response, patients who received two cycles ([8]; two cycles, three patients): two
